According to patent publication US11993640B2, “Treating inflammatory lung disease” (United States Government as represented by the Department …, priority 2019, dated 2024):
Non-standard residues stand in square brackets, D forms with d. Residues, ends and D or L forms follow the SMILES beside them. *: point of attachment. Phenylacetyl(2,3,4,5,6-F5) = O=C(Cc1c(F)c(F)c(F)c(F)c1F)*; Phe(4-Cl) = N[C@@H](Cc1ccc(Cl)cc1)C(=O)O; hArg = N=C(N)NCCCC[C@H](N)C(=O)O; 12Ado = NCCCCCCCCCCCC(=O)O; Nle = CCCC[C@H](N)C(=O)O; Abu = CC[C@H](N)C(=O)O; PhAc = O=C(Cc1ccccc1)*; Aoc = NCCCCCCCC(=O)O

The compounds below were run on KATOIII cells (assay: In vitro cell viability, stomach cancer KATOIII). Settings: 5 μM, 72 h; relative to MIA602 = 1; Table 3A.
Assay type: cell-based, human
Protocol: The inhibitory effects of the various synthesized GHRH antagonists were tested in cell proliferation assays in various human cancer cell lines including stomach cancer (KATOIII, N87), colon cancer (HT-29), urothelial cancer (J82, RT4), pancreatic cancer (PANC-1, CFPAC-1), prostatic cancer (PC3), breast cancer (MX-1, HCC1806), ovarian cancer (SK-OV-3, OVCAR-3) and lung cancer (HCC827, H460).
Cell culture. Human cancer cell lines including pancreatic (PANC-1 and CFPAC-1), lung (HCC827 and H460), stomach (NCI-N87 and KATOIII), urothelial (J82, RT4), prostatic (PC3), breast (MX-1 and HCC 1806), colorectal (HT-29), and ovarian (SK-OV-3 and OVCAR-3) were obtained from the American Type Culture Collection (ATCC) and cultured at 37° C. in a humidified 95% air/5% CO2 atmosphere in the medium recommended by ATCC.
In vitro cell viability. Cell viability was analyzed as follows: cancer cells including pancreatic (PANC-1 and CFPAC-1), lung (HCC827 and H460), stomach (NCI-N87 and KATOIII), urothelial (J82, RT4), prostatic (PC3) and breast (MX-1 and HCC 1806), colorectal (HT-29) and ovarian (SK-OV-3 and OVCAR-3) were grown on 96 well plates to ˜60% confluence, the cells were starved for 24 h in culture medium containing 0.5% FBS. Cells were then treated with GHRH antagonists MIA602 AVR compounds at concentrations of 1, 2.5 or 5 μM, or vehicle (0.1% DMSO) in quintuplicates for 72 hours. The medium was replaced every 48 hours. Cell viability was measured using CellTiter 96 aqueous one solution kit (Promega). Inhibitory effects of tested AVR compounds in comparison to that of MIA602 are presented as inhibitory potency.
Inhibitory effects of selected AVR compounds in comparison to that of MIA602 are presented as inhibitory potency (e.g., percentage of inhibition). […] The cell lines tested including lung cancer HCC827 (FIG. 2A), pancreatic cancer CFPAC-1 (FIG. 2B), stomach cancer N87 (FIG. 2C), colon cancer HT-29 (FIG. 2D), breast cancers MX-1 and HCC1806 (FIGS. 2E, F). Based on the results of cell proliferation assay after cancer cells were treated with antagonist at concentration of 5 μM for 72H, the relative inhibitory potency of AVR antagonists in comparison to MIA-602 is summarized in Table 3 A and B. Over 60 AVR compounds were tested in 12 cancer cell lines.

Row | SMILES | Relative inhibitory potency, Stomach KATOIII
1 | CCCC[C@H](NC(=O)[C@@H](NC(=O)[C@H](CC(=O)O)NC(=O)[C@H](CCC(N)=O)NC(=O)[C@H](CC(C)C)NC(=O)[C@H](CC(C)C)NC(=O)[C@H](CCCCN)NC(=O)[C@H](CCCNC(=N)N)NC(=O)[C@H](C)NC(=O)[C@H](CO)NC(=O)[C@H](CC(C)C)NC(=O)[C@H](CCC(N)=O)NC(=O)[C@H](CC)NC(=O)[C@H](CC(C)C)NC(=O)[C@@H](NC(=O)[C@H](CCCCN)NC(=O)[C@H](CCCNC(=N)N)NC(=O)[C@H](Cc1ccc(OC)cc1)NC(=O)[C@H](CCCCNC(=N)N)NC(=O)[C@H](CC(N)=O)NC(=O)[C@@H](NC(=O)[C@H](Cc1ccc(Cl)cc1)NC(=O)[C@@H](NC(=O)[C@H](C)NC(=O)[C@H](CC(=O)O)NC(=O)[C@@H](CCCNC(=N)N)NC(=O)[C@H](Cc1ccc(O)cc1)NC(=O)CCCCCCCCCCCNC(=O)Cc1ccccc1)[C@@H](C)CC)[C@@H](C)O)C(C)C)[C@@H](C)CC)C(=O)N[C@H](CCCNC(=N)N)C(=O)N[C@@H](CCCCNC(=N)N)C(=O)NCCCCCCCCCCCC(N)=O [AVR-332] ({PhAc-12Ado}-Y[dR]DAI[Phe(4-Cl)]TN[hArg]Y(Me)RKVL[Abu]QLSARKLLQDI[Nle][dR][hArg][12Ado]-NH2) | 1.643
2 | CCCC[C@H](NC(=O)[C@@H](NC(=O)[C@H](CC(=O)O)NC(=O)[C@H](CCC(N)=O)NC(=O)[C@H](CC(C)C)NC(=O)[C@H](CC(C)C)NC(=O)[C@H](CCCCN)NC(=O)[C@H](CCCNC(=N)N)NC(=O)[C@H](C)NC(=O)[C@H](CO)NC(=O)[C@H](CC(C)C)NC(=O)[C@H](CCC(N)=O)NC(=O)[C@H](CC)NC(=O)[C@H](CC(C)C)NC(=O)[C@@H](NC(=O)[C@H](CCCCN)NC(=O)[C@H](CCCNC(=N)N)NC(=O)[C@H](Cc1ccc(OC)cc1)NC(=O)[C@H](CCCCNC(=N)N)NC(=O)[C@H](CC(N)=O)NC(=O)[C@@H](NC(=O)[C@H](Cc1ccc(Cl)cc1)NC(=O)[C@@H](NC(=O)[C@H](C)NC(=O)[C@H](CC(=O)O)NC(=O)[C@@H](CCCNC(=N)N)NC(=O)[C@H](Cc1ccc(O)cc1)NC(=O)CCCCCCCCCCCNC(=O)Cc1ccccc1)[C@@H](C)CC)[C@@H](C)O)C(C)C)[C@@H](C)CC)C(=O)N[C@H](CCCNC(=N)N)C(=O)N[C@@H](CCCCNC(=N)N)C(=O)NCCCCCCCC(=O)NC [AVR-321, PhAC-Ada-Tyr-DArg-Asp-Ala-Ile-Cpa-Thr-Asn-Har-Tyr(Me)-Arg-Lys-Val-Leu-Abu-Gln-Leu-Ser-Ala-Arg-Lys-Leu-Leu-Gln-Asp-Ile-Nle-DArg-Har-Aoc-NHCH3] ({PhAc-12Ado}-Y[dR]DAI[Phe(4-Cl)]TN[hArg]Y(Me)RKVL[Abu]QLSARKLLQDI[Nle][dR][hArg][Aoc]-NHMe) | 1.414
3 | CCCC[C@H](NC(=O)[C@@H](NC(=O)[C@H](CC(=O)O)NC(=O)[C@H](CCC(N)=O)NC(=O)[C@H](CC(C)C)NC(=O)[C@H](CC(C)C)NC(=O)[C@H](CCCCN)NC(=O)[C@H](CCCNC(=N)N)NC(=O)[C@H](C)NC(=O)[C@H](CO)NC(=O)[C@H](CC(C)C)NC(=O)[C@H](CCC(N)=O)NC(=O)[C@H](CC)NC(=O)[C@H](CC(C)C)NC(=O)[C@@H](NC(=O)[C@H](CCCCN)NC(=O)[C@H](CCCNC(=N)N)NC(=O)[C@H](Cc1ccc(OC)cc1)NC(=O)[C@H](CCCCNC(=N)N)NC(=O)[C@H](CC(N)=O)NC(=O)[C@@H](NC(=O)[C@H](Cc1ccc(Cl)cc1)NC(=O)[C@@H](NC(=O)[C@H](C)NC(=O)[C@H](CC(=O)O)NC(=O)[C@@H](CCCNC(=N)N)NC(=O)[C@H](Cc1ccc(O)cc1)NC(=O)CCCCCCCCCCCNC(=O)Cc1c(F)c(F)c(F)c(F)c1F)[C@@H](C)CC)[C@@H](C)O)C(C)C)[C@@H](C)CC)C(=O)N[C@H](CCCNC(=N)N)C(=O)N[C@@H](CCCCNC(=N)N)C(=O)NCCCCCCCC(=O)NC [AVR-322, 5FPhAC-Ada-Tyr-DArg-Asp-Ala-Ile-Cpa-Thr-Asn-Har-Tyr(Me)-Arg-Lys-Val-Leu-Abu-Gln-Leu-Ser-Ala-Arg-Lys-Leu-Leu-Gln-Asp-Ile-Nle-DArg-Har-Aoc-NHCH3] ({Phenylacetyl(2,3,4,5,6-F5)-12Ado}-Y[dR]DAI[Phe(4-Cl)]TN[hArg]Y(Me)RKVL[Abu]QLSARKLLQDI[Nle][dR][hArg][Aoc]-NHMe) | 1.296
